Source: ChEMBL document CHEMBL1817621, “SAR studies of acidic dual γ-secretase/PPARγ modulators” (Bioorg Med Chem, 2011)
Calls of active or inactive are those of the source. No cut-off for these calls is given here.

Target: T1, Peroxisome proliferator-activated receptor alpha (Homo sapiens) (UniProt Q07869)
T1 sequence (whole entry): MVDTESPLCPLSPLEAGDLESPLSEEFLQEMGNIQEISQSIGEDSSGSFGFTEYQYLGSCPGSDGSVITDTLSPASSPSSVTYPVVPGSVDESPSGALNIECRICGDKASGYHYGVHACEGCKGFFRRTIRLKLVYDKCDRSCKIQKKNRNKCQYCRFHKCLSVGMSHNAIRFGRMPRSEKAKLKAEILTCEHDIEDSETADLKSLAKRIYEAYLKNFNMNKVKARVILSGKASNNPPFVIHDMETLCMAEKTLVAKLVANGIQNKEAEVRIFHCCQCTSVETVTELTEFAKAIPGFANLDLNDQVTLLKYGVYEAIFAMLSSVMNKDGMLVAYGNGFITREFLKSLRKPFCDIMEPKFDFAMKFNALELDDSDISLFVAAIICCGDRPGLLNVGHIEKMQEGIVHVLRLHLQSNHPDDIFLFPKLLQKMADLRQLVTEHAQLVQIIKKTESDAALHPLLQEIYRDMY
Experiment: Modulation of human PPARalpha-LBD expressed in african green monkey COS7 cells co-transfected with Gal4 assessed as activation of transactivation activity at 10 uM by luciferase assay
Format: cell-based
Settings: COS-7
With `CCCC/C(=C\c1cc(OCCc2ccccc2)ccc1OCCc1ccccc1)C(=O)O` the Activity was “inactive”.
In the case of `CCCC/C(=C\c1cc(OCc2ccc(C(F)(F)F)cc2)ccc1OCc1ccc(C(F)(F)F)cc1)C(=O)O`, the Activity is reported as “inactive”.
With `CCCCC(Oc1cc(OCCc2ccccc2)cc(OCCc2ccccc2)c1)C(=O)O` (stereo not given) the Activity was “inactive”.
With `CCCCC(Cc1ccc(OCCC2CCCCC2)c(OCCC2CCCCC2)c1)C(=O)O` (stereo not given) the Activity was “inactive”.

Target: T2, Peroxisome proliferator-activated receptor delta (Homo sapiens) (UniProt Q03181)
T2 sequence (whole entry): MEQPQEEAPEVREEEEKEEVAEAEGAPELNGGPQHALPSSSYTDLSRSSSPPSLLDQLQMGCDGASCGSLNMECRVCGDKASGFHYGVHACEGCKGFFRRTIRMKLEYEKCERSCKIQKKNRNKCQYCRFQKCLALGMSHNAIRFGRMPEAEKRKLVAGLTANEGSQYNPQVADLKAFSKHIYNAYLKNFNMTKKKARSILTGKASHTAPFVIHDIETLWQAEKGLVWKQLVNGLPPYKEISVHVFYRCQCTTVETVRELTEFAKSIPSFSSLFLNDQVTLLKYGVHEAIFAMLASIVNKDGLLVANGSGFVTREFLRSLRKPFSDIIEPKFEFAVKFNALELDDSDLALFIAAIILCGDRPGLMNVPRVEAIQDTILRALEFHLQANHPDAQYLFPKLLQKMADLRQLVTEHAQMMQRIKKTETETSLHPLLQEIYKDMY
Experiment: Modulation of human PPARdelta-LBD expressed in african green monkey COS7 cells co-transfected with Gal4 assessed as activation of transactivation activity at 10 uM by luciferase assay
Format: cell-based
Settings: COS-7
For `CCCC/C(=C\c1cc(OCCc2ccccc2)ccc1OCCc1ccccc1)C(=O)O`, the Activity was “inactive”.
In the case of `CCCC/C(=C\c1cc(OCc2ccc(C(F)(F)F)cc2)ccc1OCc1ccc(C(F)(F)F)cc1)C(=O)O`, the Activity is reported as “inactive”.
With `CCCCC(Oc1cc(OCCc2ccccc2)cc(OCCc2ccccc2)c1)C(=O)O` (stereo not given) the Activity was “inactive”.
With `CCCCC(Cc1ccc(OCCC2CCCCC2)c(OCCC2CCCCC2)c1)C(=O)O` (stereo not given) the Activity was “inactive”.

Target: T3, Peroxisome proliferator-activated receptor gamma (Homo sapiens) (UniProt P37231)
T3 sequence (whole entry): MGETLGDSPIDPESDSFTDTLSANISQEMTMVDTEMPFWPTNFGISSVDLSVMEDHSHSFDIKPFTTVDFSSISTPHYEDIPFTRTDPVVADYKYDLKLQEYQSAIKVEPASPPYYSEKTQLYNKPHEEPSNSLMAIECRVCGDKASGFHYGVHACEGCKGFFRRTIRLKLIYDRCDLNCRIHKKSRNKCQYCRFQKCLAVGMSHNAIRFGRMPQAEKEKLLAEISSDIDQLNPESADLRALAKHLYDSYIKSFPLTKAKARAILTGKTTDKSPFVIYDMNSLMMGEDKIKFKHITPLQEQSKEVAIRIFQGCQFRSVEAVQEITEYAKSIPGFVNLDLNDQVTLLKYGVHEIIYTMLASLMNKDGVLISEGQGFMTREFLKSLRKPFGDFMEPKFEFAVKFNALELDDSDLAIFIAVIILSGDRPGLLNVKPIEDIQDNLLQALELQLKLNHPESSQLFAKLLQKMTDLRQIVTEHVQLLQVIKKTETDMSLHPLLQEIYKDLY
Experiment: Modulation of human PPARgamma-LBD expressed in african green monkey COS7 cells co-transfected with Gal4 assessed as activation of transactivation activity at 10 uM by luciferase assay
Format: cell-based
Settings: COS-7
Work on `CCCC/C(=C\c1cc(OCc2ccc(C(F)(F)F)cc2)ccc1OCc1ccc(C(F)(F)F)cc1)C(=O)O` yielded an Activity of 28%.

Target: T4, Peroxisome proliferator-activated receptor gamma (Homo sapiens, UniProt P37231)
T4 sequence (P37231 whole entry): T3 sequence (whole entry)
Experiment: Modulation of human PPARgamma-LBD expressed in african green monkey COS7 cells co-transfected with Gal4 assessed as activation of transactivation activity by luciferase assay
Format: cell-based, COS-7
Settings: not given
In the case of `CCCC/C(=C\c1cc(OCCc2ccccc2)ccc1OCCc1ccccc1)C(=O)O`, the EC50 is reported as 1.8 µM.
For `CCCCC(Oc1cc(OCCc2ccccc2)cc(OCCc2ccccc2)c1)C(=O)O` (stereo not given), the EC50 was 4.8 µM.
In the case of `CCCCC(Cc1ccc(OCCC2CCCCC2)c(OCCC2CCCCC2)c1)C(=O)O` (stereo not given), the EC50 is reported as 1.1 µM.

Target: T3, Peroxisome proliferator-activated receptor gamma (Homo sapiens)
Experiment: Modulation of human PPARgamma-LBD expressed in african green monkey COS7 cells co-transfected with Gal4 assessed as activation of transactivation activity by luciferase assay relative to pioglitazone
Format: cell-based
Settings: COS-7
`CCCC/C(=C\c1cc(OCCc2ccccc2)ccc1OCCc1ccccc1)C(=O)O` gave an Emax of 47%.
`CCCCC(Oc1cc(OCCc2ccccc2)cc(OCCc2ccccc2)c1)C(=O)O` (stereo not given) gave an Emax of 46%.
For `CCCCC(Cc1ccc(OCCC2CCCCC2)c(OCCC2CCCCC2)c1)C(=O)O` (stereo not given), the Emax was 69%.

Test system: not listed separately
Experiment: Modulation of gamma-secretase expressed in CHO cells co-expressing human APP and wild type human presenilin-1 assessed as inhibition of amyloid beta42 production by ELISA
Format: cell-based
Settings: not given
For `CCCC/C(=C\c1cc(OCCc2ccccc2)ccc1OCCc1ccccc1)C(=O)O`, the IC50 was 15.4 µM.
Compound `CCCC/C(=C\c1cc(OCc2ccc(C(F)(F)F)cc2)ccc1OCc1ccc(C(F)(F)F)cc1)C(=O)O` has an IC50 of 1.2 µM.
With `CCCCC(Oc1cc(OCCc2ccccc2)cc(OCCc2ccccc2)c1)C(=O)O` (stereo not given) the IC50 was 33.7 µM.
For `CCCCC(Cc1ccc(OCCC2CCCCC2)c(OCCC2CCCCC2)c1)C(=O)O` (stereo not given), the IC50 was over 40 µM.

Test system: not listed separately
Experiment: Modulation of gamma-secretase expressed in CHO cells co-expressing human APP and wild type human presenilin-1 assessed as increase of amyloid beta38 production by ELISA
Format: cell-based
Settings: not given
With `CCCC/C(=C\c1cc(OCCc2ccccc2)ccc1OCCc1ccccc1)C(=O)O` the EC50 was 6.7 µM.
Work on `CCCC/C(=C\c1cc(OCc2ccc(C(F)(F)F)cc2)ccc1OCc1ccc(C(F)(F)F)cc1)C(=O)O` yielded an EC50 of 1.1 µM.
`CCCCC(Oc1cc(OCCc2ccccc2)cc(OCCc2ccccc2)c1)C(=O)O` (stereo not given) gave an EC50 of 26.4 µM.
For `CCCCC(Cc1ccc(OCCC2CCCCC2)c(OCCC2CCCCC2)c1)C(=O)O` (stereo not given), the EC50 was over 40 µM.

Target: T5, Prostaglandin G/H synthase 1 (Ovis aries) (UniProt P05979)
T5 sequence (whole entry): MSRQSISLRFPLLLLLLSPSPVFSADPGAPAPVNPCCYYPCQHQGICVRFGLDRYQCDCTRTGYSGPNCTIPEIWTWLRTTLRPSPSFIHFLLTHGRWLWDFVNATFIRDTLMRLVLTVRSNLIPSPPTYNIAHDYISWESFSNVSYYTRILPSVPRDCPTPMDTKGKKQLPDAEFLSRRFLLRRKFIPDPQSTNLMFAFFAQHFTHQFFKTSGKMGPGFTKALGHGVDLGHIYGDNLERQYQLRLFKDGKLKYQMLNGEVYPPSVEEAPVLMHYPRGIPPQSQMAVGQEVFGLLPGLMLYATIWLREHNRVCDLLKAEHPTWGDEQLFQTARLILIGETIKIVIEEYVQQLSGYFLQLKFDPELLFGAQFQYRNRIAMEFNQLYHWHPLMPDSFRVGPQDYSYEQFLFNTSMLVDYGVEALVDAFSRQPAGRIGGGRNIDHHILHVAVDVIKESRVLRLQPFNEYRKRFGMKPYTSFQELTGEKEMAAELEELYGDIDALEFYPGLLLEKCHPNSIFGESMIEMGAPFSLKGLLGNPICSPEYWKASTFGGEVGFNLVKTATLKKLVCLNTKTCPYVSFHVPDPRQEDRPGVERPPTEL
Experiment: Inhibition of ovine COX-1 assessed as residual activity by measuring formation of 12-HHT from arachidonic acid at 10 uM by HPLC analysis
Settings: not given
In the case of `CCCC/C(=C\c1cc(OCCc2ccccc2)ccc1OCCc1ccccc1)C(=O)O`, the Activity is reported as 68%.
In the case of `CCCC/C(=C\c1cc(OCc2ccc(C(F)(F)F)cc2)ccc1OCc1ccc(C(F)(F)F)cc1)C(=O)O`, the Activity is reported as 82.6%.
`CCCCC(Oc1cc(OCCc2ccccc2)cc(OCCc2ccccc2)c1)C(=O)O` (stereo not given) showed an Activity of 71.6%.
`CCCCC(Cc1ccc(OCCC2CCCCC2)c(OCCC2CCCCC2)c1)C(=O)O` (stereo not given) gave an Activity of 73.8%.

Target: T6, Prostaglandin G/H synthase 2 (Homo sapiens) (UniProt P35354)
T6 sequence (whole entry): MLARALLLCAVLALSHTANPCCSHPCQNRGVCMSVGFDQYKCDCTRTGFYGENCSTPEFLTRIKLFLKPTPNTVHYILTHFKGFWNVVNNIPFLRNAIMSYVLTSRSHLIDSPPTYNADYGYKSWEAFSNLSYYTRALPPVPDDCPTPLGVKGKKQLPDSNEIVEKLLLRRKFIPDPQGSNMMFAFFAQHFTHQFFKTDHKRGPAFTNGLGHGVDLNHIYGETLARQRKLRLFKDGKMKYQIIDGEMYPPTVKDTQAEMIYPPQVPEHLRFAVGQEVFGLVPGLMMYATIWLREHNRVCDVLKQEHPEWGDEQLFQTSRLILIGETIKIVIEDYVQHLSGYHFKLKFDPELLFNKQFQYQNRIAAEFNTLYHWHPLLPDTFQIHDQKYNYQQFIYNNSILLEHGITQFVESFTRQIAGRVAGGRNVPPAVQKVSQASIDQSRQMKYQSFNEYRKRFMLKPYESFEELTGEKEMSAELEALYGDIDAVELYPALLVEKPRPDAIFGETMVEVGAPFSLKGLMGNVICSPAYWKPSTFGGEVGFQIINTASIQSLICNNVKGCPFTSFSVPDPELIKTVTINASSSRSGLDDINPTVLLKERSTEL
Experiment: Inhibition of human recombinant COX-2 assessed as residual activity by measuring formation of 12-HHT from arachidonic acid at 10 uM by HPLC analysis
Settings: not given
`CCCC/C(=C\c1cc(OCCc2ccccc2)ccc1OCCc1ccccc1)C(=O)O` gave an Activity of 94.4%.
In the case of `CCCC/C(=C\c1cc(OCc2ccc(C(F)(F)F)cc2)ccc1OCc1ccc(C(F)(F)F)cc1)C(=O)O`, the Activity is reported as 102%.
Compound `CCCCC(Oc1cc(OCCc2ccccc2)cc(OCCc2ccccc2)c1)C(=O)O` (stereo not given) has an Activity of 92.5%.
In the case of `CCCCC(Cc1ccc(OCCC2CCCCC2)c(OCCC2CCCCC2)c1)C(=O)O` (stereo not given), the Activity is reported as 79.1%.

Test system: CHO
Experiment: Cytotoxicity against CHO cells expressing human APP and wild type human presenilin-1 assessed as reduction of cell viability up to 40 uM after 24 hrs by Alamar blue assay
Format: cell-based, Cricetulus griseus
Settings: chinese hamster
For `CCCC/C(=C\c1cc(OCCc2ccccc2)ccc1OCCc1ccccc1)C(=O)O`, the Activity was “Non-toxic”.
In the case of `CCCC/C(=C\c1cc(OCc2ccc(C(F)(F)F)cc2)ccc1OCc1ccc(C(F)(F)F)cc1)C(=O)O`, the Activity is reported as “Non-toxic”.
With `CCCCC(Oc1cc(OCCc2ccccc2)cc(OCCc2ccccc2)c1)C(=O)O` (stereo not given) the Activity was “Non-toxic”.
For `CCCCC(Cc1ccc(OCCC2CCCCC2)c(OCCC2CCCCC2)c1)C(=O)O` (stereo not given), the Activity was “Non-toxic”.
